Source: ChEMBL document CHEMBL1149467, “From genome to drug lead: identification of a small-molecule inhibitor of the SARS virus” (Bioorg Med Chem Lett, 2006)

What was measured:
SARS-CoV [1] = experiment: Inhibition of human SARS-CoV Toronto-2 in a cell based assay; format: functional, organism-based; settings: Severe acute respiratory syndrome-related coronavirus
SARS-CoV [2] = experiment: Inhibition of human SARS-CoV Toronto-2 at 300 uM in a cell based assay; format: functional; settings: Severe acute respiratory syndrome-related coronavirus

Row | Compound | EC50 (SARS-CoV [1]) | inhibition at 300 µM (SARS-CoV [2])
1 | O=C(O)c1ccc(/N=C/c2c(O)ccc3oc4c(c23)CCCC4)cc1 | 23 µM | 
2 | O=C(O)c1ccc(NC(=O)c2cccc3c2C2=C(CCCC2)C3=O)cc1 |  | 25%
